Source: US9243247B2, “Composition for promoting apoptosis or inhibiting cell growth, comprising epstein-barr virus microrna” (Catholic University Industry Academic Cooperation Foundation, priority 2011, dated 2016)

Key:
Assay type in all cases: cell-based
AGS cell strain [1] = test: Effect on cell cycle (propidium iodide staining, FACS, sub G1); details: mimic 10 nM, 10 uM 5-FU 24 h after transfection, then 48 hours, relative to scrambled control (=1)
Method in brief: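 AGS gastric cells (EBV-negative), 2×10^5 per well, were transfected with synthetic miRNA (10 nM). DNA was stained with propidium iodide, and the cell-cycle-altered fraction was measured by FACS.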

AGS cell strain [2] = test: Cell growth test (CCK-8 assay) after transfection of BART miRNA mimics; details: mimic 10 nM, 72 hours after transfection, relative to scrambled control (=1), n=9
Method in brief: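 EBV-negative AGS gastric cells in RPMI1640 with 10% FBS, seeded 1×10^3 cells/well and transfected with synthetic mature BART miRNA mimics (10 nM; dose series 1, 3, 10, 30 nM) via G-fectin. Growth read by CCK-8 after 72 h (or over time), 2 h at 37 °C, absorbance measured.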

AGS cell strain [3] = test: Measurement of apoptosis (Annexin V staining, FACS); details: for Relative Apoptotic cell: AGS, mimic 10 nM, 10 uM 5-FU 24 h after transfection, then 48 hours, Annexin V, relative to scrambled control (=1), n=9; for effect on cell growth and apoptosis (summary statement): mimics transfected to AGS, tumor cell strain not infected with EBV
Method in brief: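 EBV-negative AGS cells (2×10^5/well) were transfected with 10 nM synthetic miRNA. Twenty-four hours later they received 10 uM 5-FU for 48 h at 37 °C. The apoptotic cell ratio was measured by PE Annexin V staining and FACS.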

Substance: BART4-5p: EBV BART miRNA mimic, double stranded RNA; sense SEQ NO: 5, antisense SEQ NO: 6 (sense GACCUGAUGCUGCUGGUGUGCU; antisense AGCACACCAGCAGCAUCAGGUC; chemistry not given here)
- Relative Sub G1 (AGS cell strain [1]): 1.236
- Relative Sub G1 (AGS cell strain [1]; listed as miR-BART4-5p): increased
- Relative Cell Growth (AGS cell strain [2]): 0.9348
- Relative Apoptotic cell (AGS cell strain [3]): 1.204
- Relative Apoptotic cell (AGS cell strain [3]; listed as miR-BART4-5p): significantly higher
- effect on cell growth and apoptosis (summary statement) (AGS cell strain [3]): inhibit cell growth and promote apoptosis

Substance: BART9-3p: EBV BART miRNA mimic, double stranded RNA; sense SEQ NO: 51, antisense SEQ NO: 52 (sense UAACACUUCAUGGGUCCCGUAGU; antisense ACUACGGGACCCAUGAAGUGUUA; chemistry not given here)
- Relative Sub G1 (AGS cell strain [1]): 0.8669
- Relative Cell Growth (AGS cell strain [2]): 1.569
- Relative Apoptotic cell (AGS cell strain [3]): 0.7948

Substance: BART21-3p: EBV BART miRNA mimic, double stranded RNA; sense SEQ NO: 35, antisense SEQ NO: 36 (sense CUAGUUGUGCCCACUGGUGUUU; antisense AAACACCAGUGGGCACAACUAG; chemistry not given here)
- Relative Sub G1 (AGS cell strain [1]): 0.965
- Relative Cell Growth (AGS cell strain [2]): 1.215
- Relative Apoptotic cell (AGS cell strain [3]): 1.155
- Relative Apoptotic cell (AGS cell strain [3]; listed as 21-3p): significantly higher
- effect on cell growth and apoptosis (summary statement) (AGS cell strain [3]): inhibit cell growth and promote apoptosis

Substance: BART22-5p: EBV BART miRNA mimic, double stranded RNA; sense SEQ NO: 53, antisense SEQ NO: 54 (sense UGCUAGACCCUGGAGUUGAACC; antisense GGUUCAACUCCAGGGUCUAGCA; chemistry not given here)
- Relative Sub G1 (AGS cell strain [1]): 0.9654
- Relative Cell Growth (AGS cell strain [2]): 1.529
- Relative Apoptotic cell (AGS cell strain [3]): 1.197
- Relative Apoptotic cell (AGS cell strain [3]; listed as 22-5p): significantly higher
- effect on cell growth and apoptosis (summary statement) (AGS cell strain [3]): inhibit cell growth and promote apoptosis

Substance: BART5-3p: EBV BART miRNA mimic, double stranded RNA; sense SEQ NO: 19, antisense SEQ NO: 20 (sense GUGGGCCGCUGUUCACCU; antisense AGGUGAACAGCGGCCCAC; chemistry not given here)
- Relative Sub G1 (AGS cell strain [1]): 0.9486
- Relative Cell Growth (AGS cell strain [2]): 0.9583
- Relative Apoptotic cell (AGS cell strain [3]): 1.17
- effect on cell growth and apoptosis (summary statement) (AGS cell strain [3]): inhibit cell growth and promote apoptosis

Substance: BART13-3p: EBV BART miRNA mimic, double stranded RNA; sense SEQ NO: 79, antisense SEQ NO: 80 (sense UGUAACUUGCCAGGGACGGCUGA; antisense UCAGCCGUCCCUGGCAAGUUACA; chemistry not given here)
- Relative Sub G1 (AGS cell strain [1]): 0.9813
- Relative Cell Growth (AGS cell strain [2]): 1.255
- Relative Apoptotic cell (AGS cell strain [3]): 1.187
- Relative Apoptotic cell (AGS cell strain [3]; listed as 13-3p): significantly higher
- effect on cell growth and apoptosis (summary statement) (AGS cell strain [3]): inhibit cell growth and promote apoptosis

Substance: BART7-5p: EBV BART miRNA mimic, double stranded RNA; sense SEQ NO: 41, antisense SEQ NO: 42 (sense CCUGGACCUUGACUAUGAAACA; antisense UGUUUCAUAGUCAAGGUCCAGG; chemistry not given here)
- Relative Sub G1 (AGS cell strain [1]): 0.9918
- Relative Cell Growth (AGS cell strain [2]): 1.539
- Relative Apoptotic cell (AGS cell strain [3]): 1.097
- Relative Apoptotic cell (AGS cell strain [3]; listed as 7-5p): significantly higher
- effect on cell growth and apoptosis (summary statement) (AGS cell strain [3]): inhibit cell growth and promote apoptosis

Substance: BART13-5p: EBV BART miRNA mimic, double stranded RNA; sense SEQ NO: 77, antisense SEQ NO: 78 (sense AACCGGCUCGUGGCUCGUACAG; antisense CUGUACGAGCCACGAGCCGGUU; chemistry not given here)
- Relative Sub G1 (AGS cell strain [1]): 1.178
- Relative Sub G1 (AGS cell strain [1]; listed as 13-5p): increased
- Relative Cell Growth (AGS cell strain [2]): 1.326
- Relative Apoptotic cell (AGS cell strain [3]): 1.077
- Relative Apoptotic cell (AGS cell strain [3]; listed as 13-5p): significantly higher
- effect on cell growth and apoptosis (summary statement) (AGS cell strain [3]): inhibit cell growth and promote apoptosis
